Reference: BindingDB's records for doi:10.7270/Q2QF8R9S (Vanderbilt Screening Center For Gpcrs, Ion Channels and …, 2010)
pEC50: −log10 of the molar value.

Molecular target: T1, Muscarinic acetylcholine receptor M1 (Rattus norvegicus, UniProt P08482)
T1 sequence (P08482 whole entry): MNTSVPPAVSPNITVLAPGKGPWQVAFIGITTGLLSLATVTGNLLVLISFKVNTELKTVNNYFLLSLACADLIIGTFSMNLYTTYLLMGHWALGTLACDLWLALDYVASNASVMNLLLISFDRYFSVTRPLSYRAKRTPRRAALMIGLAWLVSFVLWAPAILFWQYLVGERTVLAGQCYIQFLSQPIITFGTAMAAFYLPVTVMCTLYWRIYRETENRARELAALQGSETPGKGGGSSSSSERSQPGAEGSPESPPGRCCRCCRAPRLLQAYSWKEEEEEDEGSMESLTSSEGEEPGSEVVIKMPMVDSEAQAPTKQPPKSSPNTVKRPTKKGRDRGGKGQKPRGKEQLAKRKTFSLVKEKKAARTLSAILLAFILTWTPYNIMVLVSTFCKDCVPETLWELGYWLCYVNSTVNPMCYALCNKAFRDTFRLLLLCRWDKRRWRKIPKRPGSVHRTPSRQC
Assay: rat M1 PAM analog potency, SAR follow-up, cell-based, calcium mobilization, CHO-K1 (AID 2651)
Conditions: not given

pEC50	Compound
5.27	Cc1cc(NC(=O)CS(=O)(=O)c2cn(Cc3cccc(Br)c3)c3cc(F)cc(F)c23)no1 [2-[1-[(3-bromophenyl)methyl]-4,6-bis(fluoranyl)indol-3-yl]sulfonyl-N-(5-methyl-1,2-oxazol-3-yl)ethanamide]
5.36	Cc1cc(NC(=O)CS(=O)(=O)c2cn(Cc3cccc(-c4cc[nH]n4)c3F)c3ccccc23)no1
5.49	Cc1cc(NC(=O)CS(=O)(=O)c2cn(Cc3cccc(-c4ccn(C)n4)c3)c3ccccc23)no1 [VU0402606-1]
5.66	Cc1cc(NC(=O)CS(=O)(=O)c2cn(Cc3cccc(-c4cn[nH]c4)c3)c3ccccc23)no1
5.24	Cc1cc(NC(=O)CS(=O)(=O)c2cn(Cc3cccc(Cl)c3)c3ccccc23)no1 [VU0366968-1]
5.28	Cc1cc(NC(=O)CS(=O)(=O)c2cn(Cc3cccc(F)c3)c3ccccc23)no1 [2-[[1-[(3-fluorophenyl)methyl]-3-indolyl]sulfonyl]-N-(5-methyl-3-isoxazolyl)acetamide]
5.51	Cc1cc(NC(=O)CS(=O)(=O)c2cn(Cc3cc(-c4cc[nH]n4)ccc3F)c3ccccc23)no1 [2-[[1-[[2-fluoro-5-(1H-pyrazol-5-yl)phenyl]methyl]-3-indolyl]sulfonyl]-N-(5-methyl-3-isoxazolyl)acetamide]
5.00	Cc1cc(NC(=O)CS(=O)(=O)c2cn(Cc3ccc(F)nc3)c3ccccc23)no1 [VU0404018]
5.29	Cc1cc(NC(=O)CS(=O)(=O)c2cn(Cc3cccc(Cl)c3F)c3ccccc23)no1
5.00	Cc1cc(NC(=O)CS(=O)(=O)c2cn(Cc3ccccc3Cl)c3ccccc23)no1 [2-[1-[(2-chlorophenyl)methyl]indol-3-yl]sulfonyl-N-(5-methyl-1,2-oxazol-3-yl)acetamide]
5.86	Cc1cc(NC(=O)CS(=O)(=O)c2cn(Cc3cc(Br)ccc3F)c3ccccc23)no1 [2-[[1-[(5-bromo-2-fluorophenyl)methyl]-3-indolyl]sulfonyl]-N-(5-methyl-3-isoxazolyl)acetamide]
5.18	COc1cccc(Cn2cc(S(=O)(=O)CC(=O)Nc3cc(C)on3)c3ccccc32)c1 [VU0366971-1]
5.73	Cc1cc(NC(=O)CS(=O)(=O)c2cn(Cc3cccc(-c4cn[nH]c4)c3)c3cc(F)cc(F)c23)no1 [VU0405645-1]
5.42	Cc1cc(NC(=O)CS(=O)(=O)c2cn(Cc3cccc(Br)c3)c3ccccc23)no1 [2-[[1-[(3-bromophenyl)methyl]-3-indolyl]sulfonyl]-N-(5-methyl-3-isoxazolyl)acetamide]

Same assay, conditions: inactive by the depositor's call

pEC50	Compound
4.52	Cc1cc(NC(=O)CS(=O)(=O)c2cn(Cc3cccc(-c4ccc(Cl)nc4)c3)c3ccccc23)no1
